Data taken from patent US11351173B2, “Substituted pyrrolo[1,2-a]pyrimidines and their use in the treatment of medical disorders” (Bial—R&D Investments, S.A., priority 2014, dated 2022).
Converted amounts (≈) assume the structure as drawn.

Assays:
[1] = molecular target: T1, glucocerebrosidase (Gcase) (Homo sapiens, UniProt P04062); assay: Glucocerebrosidase (Gcase) activation assay, 4-methylumbelliferyl-beta-D-glucopyranoside substrate, fluorescence readout; type: biochemical; settings: for activation at 0.1 µM: read-out: Percent Gcase Activation, 0.1 μM Test Compound; for Percent Gcase Activation, 1 μM Test Compound / activation at 1 µM: test compound at 1.0 μM; for activation at 1 µM: read-out: Percent Gcase Activation, 1 μM Test Compound
T1 construct: micellar solution containing 10 nM GCase and 100 nM saposin C
T1 sequence (P04062 40-536): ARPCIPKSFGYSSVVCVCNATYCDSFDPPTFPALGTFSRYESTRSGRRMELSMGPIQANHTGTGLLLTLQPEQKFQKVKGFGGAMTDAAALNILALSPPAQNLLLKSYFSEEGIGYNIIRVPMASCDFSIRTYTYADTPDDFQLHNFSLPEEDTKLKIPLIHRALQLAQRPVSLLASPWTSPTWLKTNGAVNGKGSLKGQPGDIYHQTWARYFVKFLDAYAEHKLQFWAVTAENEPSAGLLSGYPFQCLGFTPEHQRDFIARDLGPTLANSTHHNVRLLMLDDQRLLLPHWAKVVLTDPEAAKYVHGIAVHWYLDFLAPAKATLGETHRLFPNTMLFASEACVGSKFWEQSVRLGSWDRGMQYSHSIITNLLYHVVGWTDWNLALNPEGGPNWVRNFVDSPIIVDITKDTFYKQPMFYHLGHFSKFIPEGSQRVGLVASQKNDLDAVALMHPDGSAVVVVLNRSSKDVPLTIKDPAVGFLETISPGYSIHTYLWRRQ
Summary of the method: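 Readout is endpoint fluorescence (ex 365, em 440 nm) after glycine pH 12.5 stop of a 15-min room-temperature reaction. Enzyme mix: GCase 10 nM plus saposin C 100 nM in 0.37 mol % PS/0.32 mM triton micelles, pH 4.7, compound pre-incubated 30 min; substrate solution 2 mM before 1:1 mixing. Tested at 1.0/0.1 μM, then 3-fold, 8-point series up to 5 μM.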

[2] = Compound solubility in water; settings: for solubility: Compound Solubility in Water

| SMILES | activation at 0.1 µM ([1]; test compound at 0.1 μM) [%] | Percent Gcase Activation, 1 μM Test Compound [1] | solubility ([2]; water) [µg/mL] | Compound Solubility in Water ([2]; in water) [µg/mL] | activation at 1 µM [1] [%] | solubility ([2]; water, in water) [µg/mL] | Compound Solubility in Water ([2]; water) [µg/mL] | Percent Gcase Activation, 0.1 μM Test Compound ([1]; test compound at 0.1 μM) |
| --- | --- | --- | --- | --- | --- | --- | --- | --- |
| Cc1cc(C)n2ccc(C(=O)NC3CCC4(CCCCO4)C3)c2n1 (centres unmarked) [III-82] | 10 to 20 | +++ (Gcase activation greater than 60%) | 27.3 (≈ 83.4 µM) | – | – | – | – | – |
| Cc1cc(C(F)(F)F)nc2c(C(=O)NC3CCC4(CCCCO4)C3)ccn12 (centres unmarked) [III-249] | – | +++ (Gcase activation greater than 60%) | – | 12.6 | – | – | – | – |
| Cc1cc(C)n2ccc(C(=O)Nc3ccc(N4CCCCC4)cc3)c2n1 [III-17] | < 10 | – | < 0.1 | – | 30 to 60 | – | – | – |
| Cc1ccnc2c(C(=O)NC3(C)CCOc4ccc(F)cc43)ccn12 (centres unmarked) [III-264] | 10 to 20 | – | – | – | > 60 | 12.5 (≈ 36.8 µM) | – | – |
| O=C(N[C@H]1CCCc2ccccc21)c1ccn2c(C3CC3)ccnc12 [III-161] | < 10 | – | 0.9 (≈ 2.72 µM) | – | 30 to 60 | – | – | – |
| C#Cc1cccc(C(C)(C)NC(=O)c2ccn3c(COC)cc(COC)nc23)c1 [III-157] | > 20 | – | 2.6 (≈ 6.64 µM) | – | > 60 | – | – | – |
| Cc1cc(C)n2ccc(C(=O)Nc3ccc(-c4ccco4)cc3)c2n1 [III-117] | > 20 | – | – | – | > 60 | – | 0.02 | – |
| COCc1cc(C(F)F)n2ccc(C(=O)NC3(C)CCOc4cc(F)c(F)cc43)c2n1 (centres unmarked) [III-58] | 10 to 20 | – | 4.1 (≈ 9.37 µM) | – | > 60 | – | – | – |
| Cc1ccnc2c(C(=O)NC3(C)CCCc4ccccc43)ccn12 (centres unmarked) [III-262] | > 20 | – | – | – | > 60 | 0.9 (≈ 2.82 µM) | – | – |
| Cc1cc(C)n2ccc(C(=O)NC3CCC4(CCCO4)C3)c2n1 (centres unmarked) [III-147] | – | + (less than 30% Gcase activation) | – | – | – | – | 20.4 | * (less than 10% Gcase activation) |
| CCCCO[C@H]1CC[C@H](NC(=O)c2ccn3c(C)cc(F)nc23)CC1 [III-72] | < 10 | – | 14.3 (≈ 41.2 µM) | – | 30 to 60 | – | – | – |

Further lines, results first:

| activation at 0.1 µM ([1]; test compound at 0.1 μM) [%] | Percent Gcase Activation, 1 μM Test Compound [1] | solubility ([2]; water) [µg/mL] | Compound Solubility in Water ([2]; in water) [µg/mL] | activation at 1 µM [1] [%] | solubility ([2]; water, in water) [µg/mL] | Compound Solubility in Water ([2]; water) [µg/mL] | Percent Gcase Activation, 0.1 μM Test Compound ([1]; test compound at 0.1 μM) | SMILES |
| --- | --- | --- | --- | --- | --- | --- | --- | --- |
| 10 to 20 | – | 11.8 (≈ 31.1 µM) | – | > 60 | – | – | – | COCCOc1ccc2c(c1)C(NC(=O)c1ccn3c(C)cc(C)nc13)CC2 (centres unmarked) [III-103] |
| > 20 | – | 2.7 (≈ 8.15 µM) | – | > 60 | – | – | – | Cc1cc(C)n2ccc(C(=O)NC3c4ccccc4C4CC3C4)c2n1 (centres unmarked) [III-136] |
| > 20 | – | < 1.5 | – | > 60 | – | – | – | C#Cc1ccc(NC(=O)c2ccn3c(C)cc(C)nc23)cc1 [III-2] |
| < 10 | – | 30.6 (≈ 89.9 µM) | – | < 30 | – | – | – | Cc1cc(C)n2ccc(C(=O)NC3CCc4nc(C)sc4C3)c2n1 (centres unmarked) [III-111] |
| < 10 | – | 0.2 (≈ 0.502 µM) | – | 30 to 60 | – | – | – | Cc1cc(C)n2ccc(C(=O)Nc3ccc4c(c3)C(Oc3ccccn3)CC4)c2n1 (centres unmarked) [III-121] |
| < 10 | – | – | – | 30 to 60 | 0.6 (≈ 1.61 µM) | – | – | Cc1cc(C(F)(F)F)n2ccc(C(=O)NC3CCCc4ccccc43)c2n1 (centres unmarked) [III-253] |
| < 10 | – | – | – | < 30 | 4.1 (≈ 11.2 µM) | – | – | Cc1cc(C)n2ccc(C(=O)N[C@H]3CC[C@H](Oc4cccnc4)CC3)c2n1 [III-206] |
| 10 to 20 | – | – | – | > 60 | 23.8 (≈ 71 µM) | – | – | COC1CC(NC(=O)c2ccn3c(C)cc(C)nc23)c2ccccc21 (centres unmarked) [III-285] |
| < 10 | – | – | – | < 30 | 9.4 (≈ 28.5 µM) | – | – | CCOC1(C)CCC(NC(=O)c2ccn3c(C)cc(C)nc23)CC1 (centres unmarked) [III-232] |
| < 10 | – | 10.1 (≈ 34.8 µM) | – | > 60 | – | – | – | C#Cc1ccc(NC(=O)c2ccn3c(C)cc(C)nc23)cn1 [III-5] |
| > 20 | – | 0.3 (≈ 0.903 µM) | – | > 60 | – | – | – | Cc1cc(C)n2ccc(C(=O)Nc3ccc(-c4ccco4)nc3)c2n1 [III-10] |
| > 20 | – | 0.08 (≈ 0.199 µM) | – | > 60 | – | – | – | Cc1cc(C)n2ccc(C(=O)Nc3ccc4c(c3)C(Oc3cc(C)on3)CC4)c2n1 (centres unmarked) [III-96] |
| < 10 | – | 0.7 (≈ 2.09 µM) | – | 30 to 60 | – | – | – | COCC#Cc1ccc(NC(=O)c2ccn3c(C)cc(C)nc23)cn1 [III-18] |
| > 20 | – | – | – | > 60 | 0.2 (≈ 0.655 µM) | – | – | Cc1cc(C)n2ccc(C(=O)N[C@H]3CCc4ccccc43)c2n1 [III-217] |
